Measurements: ChEMBL document CHEMBL1201862, “PubChem BioAssay data set” (2004)
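A five-concentration, 48-hour dose response in 96-well plates underlies each endpoint, interpolated linearly between surrounding concentrations. GI50 = concentration required for 50% inhibition of growth.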 Activity calls are given as the source filed them. Rule as the data show it: active = GI50 up to about 1.1 µM and inactive = higher.

Key:
Assay in all cases: growth of human tumour cells (NCI), 48 h
786-0 = system: 786-0
A498 = system: A498
A549 = system: A549
ACHN = system: ACHN
BT-549 = system: BT-549
CAKI-1 = system: CAKI-1
CCRF-CEM = system: CCRF-CEM
COLO 205 = system: COLO 205
DU-145 = system: DU-145
EKVX = system: EKVX
HCC 2998 = system: HCC 2998
HCT-116 = system: HCT-116
HCT-15 = system: HCT-15
HL-60 = system: HL-60
HOP-62 = system: HOP-62
HOP-92 = system: HOP-92
HT-29 = system: HT-29
Hs-578T = system: Hs-578T
K562 = system: K562
KM12 = system: KM12
LOX IMVI = system: LOX IMVI
M14 = system: M14
MCF7 = system: MCF7
MDA-MB-231 = system: MDA-MB-231
MDA-MB-435 = system: MDA-MB-435
MDA-N = system: MDA-N
MOLT-4 = system: MOLT-4
Malme-3M = system: Malme-3M
NCI-H226 = system: NCI-H226
NCI-H23 = system: NCI-H23
NCI-H460 = system: NCI-H460
NCI-H522 = system: NCI-H522
NCI/ADR-RES = system: NCI/ADR-RES
OVCAR-3 = system: OVCAR-3
OVCAR-8 = system: OVCAR-8
PC-3 = system: PC-3
RPMI-8226 = system: RPMI-8226
RXF 393 = system: RXF 393
SF-268 = system: SF-268
SF-295 = system: SF-295
SF-539 = system: SF-539
SK-MEL-28 = system: SK-MEL-28
SK-MEL-2 = system: SK-MEL-2
SK-MEL-5 = system: SK-MEL-5
SK-OV-3 = system: SK-OV-3
SN12C = system: SN12C
SNB-19 = system: SNB-19
SR = system: SR
SW-620 = system: SW-620
T47D = system: T47D
TK-10 = system: TK-10
U-251 = system: U-251
UACC-257 = system: UACC-257
UACC-62 = system: UACC-62
UO-31 = system: UO-31
IGROV-1 = system: IGROV-1
OVCAR-4 = system: OVCAR-4
OVCAR-5 = system: OVCAR-5
SNB-75 = system: SNB-75

Measured: GI50

O/N=C/C1c2ccccc2-c2ccccc21
19.5 µM: HCT-15
inactive: 786-0 3.7 µM | A498 17.5 µM | A549 19.2 µM | ACHN 16.4 µM | BT-549 16.9 µM | CAKI-1 14 µM | CCRF-CEM 19.5 µM | COLO 205 16.6 µM | DU-145 20.8 µM | EKVX 13.6 µM | HCC 2998 15.9 µM | HCT-116 16.3 µM | HL-60 31.3 µM | HOP-62 17.9 µM | HOP-92 12.8 µM | HT-29 14.8 µM | Hs-578T 18.7 µM | K562 29.9 µM | KM12 17.4 µM | LOX IMVI 23 µM | M14 16.9 µM | MCF7 16 µM | MDA-MB-231 14.6 µM | MDA-MB-435 15.8 µM | MDA-N 14.2 µM | MOLT-4 24 µM | Malme-3M 15.2 µM | NCI-H226 15 µM | NCI-H23 17.9 µM | NCI-H460 17.3 µM | NCI-H522 16.9 µM | NCI/ADR-RES 16.8 µM | OVCAR-3 16.1 µM | OVCAR-8 19.6 µM | PC-3 17.2 µM | RPMI-8226 21.5 µM | RXF 393 19.5 µM | SF-268 15.3 µM | SF-295 22.5 µM | SF-539 16.2 µM | SK-MEL-28 15.7 µM | SK-MEL-2 17.1 µM | SK-MEL-5 12.5 µM | SK-OV-3 14.4 µM | SN12C 16.4 µM | SNB-19 18.4 µM | SR 23.2 µM | SW-620 16.6 µM | T47D 19.3 µM | TK-10 18.9 µM | U-251 19.4 µM | UACC-257 17.5 µM | UACC-62 15 µM | UO-31 15.1 µM

O=C1C(/C=N/CCc2c[nH]c3ccccc23)C(C(F)(F)F)=NN1c1nc2ccccc2s1 (centres undefined)
active: T47D 0.664 µM
inactive: 786-0 39.2 µM | A498 20.3 µM | A549 18.3 µM | ACHN 27.4 µM | BT-549 25.3 µM | CAKI-1 37.2 µM | CCRF-CEM 19.5 µM | COLO 205 17.7 µM | DU-145 23.3 µM | EKVX 23.1 µM | HCT-116 31.6 µM | HL-60 19.8 µM | HOP-62 20.4 µM | HOP-92 16.4 µM | HT-29 27.5 µM | Hs-578T 44.1 µM | IGROV-1 24.4 µM | K562 29.2 µM | LOX IMVI 27.9 µM | M14 30.7 µM | MCF7 23 µM | MDA-MB-231 36.7 µM | MDA-MB-435 25.4 µM | MDA-N 32.8 µM | MOLT-4 21.1 µM | Malme-3M 29.6 µM | NCI-H226 26.4 µM | NCI-H23 30.8 µM | NCI-H460 24.1 µM | NCI-H522 19.5 µM | NCI/ADR-RES 26.7 µM | OVCAR-3 20.7 µM | OVCAR-4 26.7 µM | OVCAR-5 29.2 µM | OVCAR-8 29.7 µM | PC-3 31 µM | RPMI-8226 22.2 µM | RXF 393 15 µM | SF-268 50.5 µM | SF-295 24 µM | SF-539 31.1 µM | SK-MEL-28 33.3 µM | SK-MEL-2 28.8 µM | SK-MEL-5 18.3 µM | SK-OV-3 25.3 µM | SN12C 37.6 µM | SNB-19 36.5 µM | SNB-75 24.8 µM | SR 31.6 µM | SW-620 38.9 µM | TK-10 25.4 µM | U-251 34.8 µM | UACC-257 18 µM | UACC-62 19.5 µM | UO-31 31.3 µM
29.9 µM: HCT-15

CCCCN(C(=O)c1ccccc1)C1CCC(=O)c2[nH]c3ccccc3c21 (centres undefined)
24.5 µM: HCT-15
inactive: 786-0 42.1 µM | A498 29 µM | A549 34.4 µM | ACHN 31.3 µM | BT-549 36.9 µM | CAKI-1 20.8 µM | CCRF-CEM 29.6 µM | COLO 205 21 µM | DU-145 75 µM | EKVX 51.6 µM | HCC 2998 34.4 µM | HCT-116 24.7 µM | HL-60 8.75 µM | HOP-62 40.4 µM | HOP-92 22.1 µM | HT-29 20.5 µM | Hs-578T 16.9 µM | IGROV-1 46.3 µM | K562 49.7 µM | KM12 79.6 µM | LOX IMVI 43.1 µM | M14 67.1 µM | MCF7 27.4 µM | MDA-MB-231 23.7 µM | MDA-MB-435 23.1 µM | MDA-N 50 µM | MOLT-4 32.8 µM | Malme-3M 55 µM | NCI-H226 29 µM | NCI-H23 62.4 µM | NCI-H460 35.4 µM | NCI-H522 38.7 µM | NCI/ADR-RES 30.8 µM | OVCAR-3 64.7 µM | OVCAR-4 26.7 µM | OVCAR-8 45.8 µM | PC-3 20.7 µM | RPMI-8226 19.4 µM | RXF 393 25.8 µM | SF-268 45.4 µM | SF-295 30.5 µM | SF-539 31.5 µM | SK-MEL-28 90.2 µM | SK-MEL-5 18.7 µM | SK-OV-3 61.1 µM | SN12C 57.1 µM | SNB-19 43.6 µM | SR 11.2 µM | SW-620 59.4 µM | T47D 26.9 µM | TK-10 37.5 µM | U-251 29.1 µM | UACC-257 54 µM | UACC-62 25 µM | UO-31 66.5 µM
active: SNB-75 0.481 µM
